The text below walks through data of patent publication US20260355212A1 (priority 2022, published 2026).

Like-named read-outs stand apart in the source and are kept apart here.

In one test the target is SARS-CoV-1 Mpro (Severe acute respiratory syndrome coronavirus, UniProt P0C6X7). The test can be described thus: biochemical.
In another test the target is HCoV-OC43 Mpro (Human coronavirus OC43, UniProt P0C6X6). The test can be described thus: HCoV-OC43 Mpro enzymatic inhibition assay (fluorescence). The format is biochemical. Put shortly: (§1)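 Protease activity is measured by cleavage of a synthetic fluorogenic substrate, read at 340/490 nm following 60 min at 30 °C. Enzyme and compound are pre-incubated 30 min beforehand.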
Chain of HCoV-OC43 Mpro (P0C6X6 3247-3549 limits assumed): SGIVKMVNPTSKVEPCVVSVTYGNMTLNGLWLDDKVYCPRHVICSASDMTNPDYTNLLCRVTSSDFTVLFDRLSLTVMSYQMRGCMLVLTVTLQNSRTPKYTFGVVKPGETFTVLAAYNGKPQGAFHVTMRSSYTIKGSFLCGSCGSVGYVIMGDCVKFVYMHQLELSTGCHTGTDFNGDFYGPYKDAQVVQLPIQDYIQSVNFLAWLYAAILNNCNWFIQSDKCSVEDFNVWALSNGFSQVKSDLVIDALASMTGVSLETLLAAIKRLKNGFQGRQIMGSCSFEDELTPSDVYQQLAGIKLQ

In the next test the target is HCoV-NL63 Mpro (Human coronavirus NL63, UniProt P0C6X5). Nature of the test: HCoV-NL63 Mpro enzymatic inhibition assay (fluorescence). It is filed as biochemical. In a few lines:
as §1

A further test deals with HCoV-229E Mpro (Human coronavirus 229E, UniProt P0C6X1). The test can be described thus: HCoV-229E Mpro enzymatic inhibition assay (fluorescence). It is filed as biochemical.
Chain of HCoV-229E Mpro (P0C6X1 2966-3267 limits assumed): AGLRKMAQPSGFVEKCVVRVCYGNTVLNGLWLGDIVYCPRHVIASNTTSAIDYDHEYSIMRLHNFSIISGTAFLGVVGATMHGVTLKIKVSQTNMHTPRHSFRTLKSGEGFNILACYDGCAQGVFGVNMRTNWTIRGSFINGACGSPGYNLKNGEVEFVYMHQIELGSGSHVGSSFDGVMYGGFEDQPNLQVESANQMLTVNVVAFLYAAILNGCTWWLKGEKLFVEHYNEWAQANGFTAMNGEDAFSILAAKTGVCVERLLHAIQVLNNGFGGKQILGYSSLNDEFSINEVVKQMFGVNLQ
The target in a further test is HCoV-HKU1 Mpro (Human coronavirus HKU1, UniProt P0C6X2). Nature of the test: HCoV-HKU1 Mpro enzymatic inhibition assay (fluorescence). The format is biochemical. Put shortly:
as §1

The target in a further test is SARS-CoV-2 Mpro (Severe acute respiratory syndrome coronavirus 2, UniProt P0DTD1). The test can be described thus: SARS-CoV-2 Mpro enzymatic inhibition assay (fluorescence). The format is biochemical. Put shortly: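 A fluorescence readout (340 nm excitation, 490 nm emission) was taken after the substrate reaction ran 60 min at 30° C. Before substrate addition, E. coli-expressed protease and compound (3-fold dilutions, 10 doses, duplicates) sat together 30 min at room temperature. Percent inhibition was fitted by variable-slope nonlinear regression to give IC50.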

Another test addresses MERS Mpro (Middle East respiratory syndrome-related coronavirus, UniProt K9N7C7). The test can be described thus: biochemical. On the set-up: species or system MERS-CoV.
Setting [1] is: mean, 25 nM protein, 25 μM substrate, 30 min pre-incubation, 60 min at 30° C., read-out: Mpro_SARS-CoV-2 mean IC50.

Chain of HCoV-HKU1 Mpro (P0C6X2 3335-3637 limits assumed): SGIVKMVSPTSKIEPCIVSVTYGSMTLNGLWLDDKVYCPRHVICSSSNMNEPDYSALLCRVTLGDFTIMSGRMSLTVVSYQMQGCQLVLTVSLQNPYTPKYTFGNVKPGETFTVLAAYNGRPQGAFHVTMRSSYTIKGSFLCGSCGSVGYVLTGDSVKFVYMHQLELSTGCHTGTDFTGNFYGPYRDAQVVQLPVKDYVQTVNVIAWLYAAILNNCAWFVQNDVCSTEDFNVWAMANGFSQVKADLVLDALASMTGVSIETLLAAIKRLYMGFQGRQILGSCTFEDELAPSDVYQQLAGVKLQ
Chain of MERS Mpro (K9N7C7 3248-3553 limits assumed): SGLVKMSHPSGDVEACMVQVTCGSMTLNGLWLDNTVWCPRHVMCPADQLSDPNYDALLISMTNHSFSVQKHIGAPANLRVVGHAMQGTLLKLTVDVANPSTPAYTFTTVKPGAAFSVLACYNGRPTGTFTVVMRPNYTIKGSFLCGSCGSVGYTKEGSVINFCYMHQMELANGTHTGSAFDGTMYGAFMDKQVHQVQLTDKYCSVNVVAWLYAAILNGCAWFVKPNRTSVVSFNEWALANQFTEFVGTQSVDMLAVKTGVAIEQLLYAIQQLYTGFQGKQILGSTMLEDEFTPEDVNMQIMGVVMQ
Chain of HCoV-NL63 Mpro (P0C6X5 2940-3242 limits assumed): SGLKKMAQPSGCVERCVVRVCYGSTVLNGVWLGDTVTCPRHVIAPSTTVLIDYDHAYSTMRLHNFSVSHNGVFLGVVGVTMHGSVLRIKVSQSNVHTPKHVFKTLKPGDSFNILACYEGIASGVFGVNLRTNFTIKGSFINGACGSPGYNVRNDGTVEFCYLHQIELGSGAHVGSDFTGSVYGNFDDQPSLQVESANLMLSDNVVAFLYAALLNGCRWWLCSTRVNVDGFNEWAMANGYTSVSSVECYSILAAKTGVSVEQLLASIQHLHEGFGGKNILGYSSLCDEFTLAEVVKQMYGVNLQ

The IC50 is the concentration that inhibits the measured activity by half. As to `CC1(C)[C@@H]2[C@@H](C(=O)N[C@H](C=O)C[C@@H]3CCNC3=O)N(C(=O)c3cc4c(C#N)cccc4[nH]3)C[C@@H]21` [Compound 59, (1R,2S,5S)-3-(4-Cyano-1H-indole-2-carbonyl)-6,6-dimethyl-N—((S)-1-oxo-3-((S)-2-oxopyrrolidin-3-yl)propan-2-yl)-3-azabicyclo[3.1.0]hexane-2-carboxamide], the IC50 on SARS-CoV-1 Mpro came out at 83.4 nM; against HCoV-OC43 Mpro it was 57.5 nM; against HCoV-NL63 Mpro, 64.1 nM; against HCoV-229E Mpro it was 42.6 nM; on HCoV-HKU1 Mpro, 22.9 nM; at SARS-CoV-2 Mpro (setting [1]), 26 nM. At MERS Mpro, this molecule had an IC50 of 230 nM.
With `COc1cccc2[nH]c(C(=O)N3C[C@H]4[C@@H]([C@H]3C(=O)N[C@H](C=O)C[C@@H]3CCNC3=O)C4(C)C)cc12` [Compound 65, (1R,2S,5S)-3-(4-Methoxy-1H-indole-2-carbonyl)-6,6-dimethyl-N—((S)-1-oxo-3-((S)-2-oxopyrrolidin-3-yl)propan-2-yl)-3-azabicyclo[3.1.0]hexane-2-carboxamide], the IC50 against SARS-CoV-1 Mpro came to 33.1 nM; at HCoV-OC43 Mpro it was 25.2 nM; against HCoV-NL63 Mpro, 24.1 nM; at HCoV-229E Mpro it was 38 nM; against HCoV-HKU1 Mpro, 21.1 nM; at SARS-CoV-2 Mpro (setting [1]), 27 nM. Moreover, the IC50 against MERS Mpro turned out to be 320 nM.
Regarding `O=C[C@H](C[C@@H]1CCNC1=O)NC(=O)[C@@H]1C[C@@H](Cc2ccccc2Cl)CN1C(=O)c1cc2ccccc2[nH]1` [Compound 109, (2S,4R)-4-(2-Chlorobenzyl)-1-(1H-indole-2-carbonyl)-N—((S)-1-oxo-3-((S)-2-oxopyrrolidin-3-yl)propan-2-yl)pyrrolidine-2-carboxamide], the IC50 on SARS-CoV-1 Mpro is 231 nM; against HCoV-OC43 Mpro, 271 nM; at HCoV-NL63 Mpro, 2320 nM; on HCoV-229E Mpro it was 374 nM; against HCoV-HKU1 Mpro it was 48.9 nM; on SARS-CoV-2 Mpro it was 80.8 nM. The midpoint of inhibition against MERS Mpro, the IC50, lay at 4320 nM.
For the molecule `O=C[C@H](C[C@@H]1CCNC1=O)NC(=O)[C@@H]1[C@H]2C[C@H](F)[C@H](C2)N1C(=O)c1cc2ccccc2[nH]1` [Compound 106, (1S,3S,4R,6S)-6-Fluoro-2-(1H-indole-2-carbonyl)-N—((S)-1-oxo-3-((S)-2-oxopyrrolidin-3-yl)propan-2-yl)-2-azabicyclo[2.2.1]heptane-3-carboxamide], the IC50 against SARS-CoV-1 Mpro came out at 176 nM; at HCoV-OC43 Mpro, 118 nM; at HCoV-NL63 Mpro it was 156 nM; on HCoV-229E Mpro it was 91.2 nM; against HCoV-HKU1 Mpro, 39.7 nM; against SARS-CoV-2 Mpro it was 73.7 nM. This molecule showed an IC50 on MERS Mpro of 859 nM.
As to `COc1cccc2[nH]c(C(=O)N3CC4(CC4)C[C@H]3C(=O)N[C@H](C=O)C[C@@H]3CCNC3=O)cc12` [Compound 31, (S)-5-(4-Methoxy-1H-indole-2-carbonyl)-N—((S)-1-oxo-3-((S)-2-oxopyrrolidin-3-yl)propan-2-yl)-5-azaspiro[2.4]heptane-6-carboxamide], the IC50 on SARS-CoV-1 Mpro was 34 nM; at HCoV-OC43 Mpro it was 22.2 nM; on HCoV-NL63 Mpro, 49.3 nM; against HCoV-229E Mpro it was 31.7 nM; at HCoV-HKU1 Mpro it was 14.2 nM; on SARS-CoV-2 Mpro, 18.9 nM. 188 nM corresponded to half-maximal inhibition on MERS Mpro (IC50).
For `CC1(C)[C@@H]2[C@@H](C(=O)N[C@H](C#N)C[C@@H]3CCNC3=O)N(C(=O)c3cc4cccc(Cl)c4[nH]3)C[C@@H]21` [Compound 132, (1R,2S,5S)-3-(7-Chloro-1H-indole-2-carbonyl)-N—((S)-1-cyano-2-((S)-2-oxopyrrolidin-3-yl)ethyl)-6,6-dimethyl-3-azabicyclo[3.1.0]hexane-2-carboxamide], the IC50 stood at 873 nM against SARS-CoV-1 Mpro; 3010 nM at HCoV-OC43 Mpro; 3970 nM on HCoV-NL63 Mpro; 1210 nM against HCoV-229E Mpro; 1910 nM against HCoV-HKU1 Mpro; 434 nM on SARS-CoV-2 Mpro. The molecule also gave an IC50 on MERS Mpro of 5440 nM.
With `CC1(C)[C@@H]2[C@@H](C(=O)N[C@H](C=O)C[C@@H]3CCNC3=O)N(C(=O)c3cc4ccccc4[nH]3)C[C@@H]21` [Compound 60, (1R,2S,5S)-3-(1H-Indole-2-carbonyl)-6,6-dimethyl-N—((S)-1-oxo-3-((S)-2-oxopyrrolidin-3-yl)propan-2-yl)-3-azabicyclo[3.1.0]hexane-2-carboxamide], the IC50 on SARS-CoV-1 Mpro was 52 nM; against HCoV-OC43 Mpro it was 94.9 nM; against HCoV-NL63 Mpro it was 54 nM; on HCoV-229E Mpro, 53.7 nM; against HCoV-HKU1 Mpro it was 28.9 nM; at SARS-CoV-2 Mpro (setting [1]) it was 26 nM. In addition, on MERS Mpro, the IC50 worked out at 273 nM.
For `CC1CC(C(=O)N2C[C@H]3[C@@H]([C@H]2C(=O)N[C@H](C=O)C[C@@H]2CCNC2=O)C3(C)C)C1` (stereo partly drawn) [Compound 110, (1R,2S,5S)-6,6-Dimethyl-3-(3-methylcyclobutanecarbonyl)-N—((S)-1-oxo-3-((S)-2-oxopyrrolidin-3-yl)propan-2-yl)-3-azabicyclo[3.1.0]hexane-2-carboxamide], the IC50 on SARS-CoV-1 Mpro is 205 nM; against HCoV-OC43 Mpro it was 318 nM; against HCoV-NL63 Mpro it was 1590 nM; against HCoV-229E Mpro, 105 nM; on HCoV-HKU1 Mpro, 230 nM; at SARS-CoV-2 Mpro (setting [1]), 82.2 nM. On MERS Mpro, this molecule gave an IC50 of 1160 nM.
